Source: paper PMC12841663, “Antiprotozoal Potential of Cultivated Geranium macrorrhizum Against Giardia duodenalis, Trichomonas gallinae and Leishmania infantum” (International Journal of Molecular Sciences, 2026)
Values after ≈ are worked out from the molar mass of the structure shown.

Assays:
Vero cells = system: Vero cells; set-up: method as in PMID 36672727; details: cited from earlier work
[1] = system: intracellular amastigotes of L. infantum; experiment: Infection index of DH82 macrophages infected with L. infantum (intracellular amastigotes); type: cell-based, Leishmania infantum; details: 1 µg/mL, 48 h
[2] = system: L. infantum promastigotes; experiment: Morphological evaluation by light microscopy (Diff-Quik), L. infantum; type: cell-based, Leishmania infantum; details: amphotericin B at 1 µg/mL
Protocol: L. infantum, T. gallinae and G. duodenalis were studied at 0, and 48 h after treatment with germacrone (100 µg/mL), and controls (DMSO 1%, metronidazole at 10 µg/mL for T. gallinae and G. duodenalis and amphotericin B at 1 µg/mL for L. infantum).
For L. infantum and T. gallinae, cultures in the exponential growth phase (10^7 promastigotes/mL and 5 × 10^5 trophozoites/mL, respectively) were treated in 96-well microplates. At each time point, quadruplicates were assigned per condition: growth control, germacrone, and the corresponding positive control (metronidazole or amphotericin B). For microscopy, quadruplicate wells corresponding to the same condition/time point were pooled prior to centrifugation to obtain sufficient biomass and a representative pellet for smear preparation. Pooled samples per condition/time point were centrifuged, resuspended in FBS and spread onto microscope slides. Once dried, samples were fixed and stained with Diff-Quik (Medion Diagnostic AG, Düdingen, Switzerland) following the manufacturer’s instructions. Additionally, three wells per condition (triplicates) were used for the MTT assay, with absorbance measured by spectrophotometry after 48 h.
Morphological changes were analyzed using light microscopy. Experiments were performed as independent biological replicates on different plates, and one Diff-Quik stained smear was obtained per condition and time point per biological replicate. For morphometric analysis, a total of 30 trophozoites per condition and time point were measured across the independent biological replicates and were selected by consecutive sampling during a predefined serpentine (zig-zag) scan across the preparation. Up to two eligible trophozoites per field (intact, well-focused and non-overlapping) were measured in sequential fields until n = 30 was reached, avoiding subjective selection of “representative” cells. Overlapping, partially visible, out-of-focus, edge-of-field, or debris-obscured trophozoites were excluded a priori. Trophozoites were photographed using a researcher’s mobile phone mounted to the microscope ocular. Calibration was performed at the same magnification using a stage micrometre and applied in ImageJ v. 1.54d. One Diff-Quik stained smear was obtained per condition/time point per biological replicate Cell length, cell width, cell surface, nuclear length, nuclear width, axoneme (only Giardia), and length of axostyle (only T. gallinae) were measured with ImageJ software, and the data were recorded in an Excel database for statistical analysis.
The Shapiro–Wilk test was used to assess the normality of the morphological variables. When data followed a normal distribution, Student’s t-test was applied; otherwise, non-parametric tests, such as the Mann–Whitney U test, was used. Values of p < 0.05 were considered significant. For the morphological analysis, the mean, standard deviation, median, and interquartile range were calculated using SPSS version 20 (IBM Corp., Armonk, NY, USA).

[3] = system: L. infantum promastigotes; set-up: method as in doi:10.1080/10412905.2013.820669; details: cited from earlier work
[4] = system: G. duodenalis trophozoites; experiment: Anti-Giardia activity assay (MTT viability); type: cell-based; details: pure compounds
Protocol: Anti-Giardia (AG) activity assays were conducted on G. duodenalis trophozoites from the ATCC® 30957 strain (assemblage A), using flat-bottom microwell plates in quadruplicate. […] Incubation was carried out for 24 h at 37 °C. EOs and pure compounds were solved in DMSO (Sigma, Madrid, Spain) (<1% final concentration). […] Trophozoites/promastigotes viability was assessed using the modified MTT colorimetric assay, as described previously in the literature, with results further validated by microscopic examination. The plate was analyzed in a spectrophotometer at a wavelength of 570 nm. The percentage of antiparasitic activity was calculated as growth inhibition, using the following formula: % AT = 100 - [(Ap - Ab) ÷ (Ac - Ab)] × 100, where Ap is the absorbance of the tested product, Ab the absorbance of the blank and Ac the absorbance of the control wells (culture without treatment). […] Metronidazole (Acros Organics, Madrid, Spain) served as a reference compound for anti-Giardia activity and Anti-Trichomonas activity and amphotericin B for anti-Leishmania activity. Data was analyzed using STATGRAPHICS Centurion XIX ([…].com) (Statgraphics Technologies, Inc., The Plains, VA, USA). The mammalian cells and trophozoites viability were tested with each compound in a dose-response experiment to calculate their relative potency (CC50 or IC50 value, respectively).

[5] = system: L. infantum promastigotes; experiment: Anti-Leishmania activity assay on promastigotes (MTT viability); type: cell-based; details: pure compounds
Protocol: Anti-Leishmania (AL) activity was assessed on L. infantum promastigotes (MCAN/ES/98/LLM-722), kindly provided by Dr. J.M. Requena from CBM-CSIC, as well as on L. infantum (M/CAN/ES/96/BCN150 zymodeme MON-1), strain isolated from a dog with active visceral leishmaniasis. L. infantum promastigotes (MCAN/ES/98/LLM-722) were cultured in RPMI medium supplemented with 15% FBS and 10 μg/mL of hemin (Acros Organics, Madrid, Spain), grown at 26 °C. Promastigotes in logarithmic growth were seeded in 96-well flat-bottom plates at a volume of 100 μL of culture per well and incubated for 48 h. Promastigotes for macrophage infection (M/CAN/ES/96/BCN150 zymodeme MON-1) were maintained at 26 °C in Schneider’s insect medium (Lonza, Basel, Switzerland) supplemented with 10% FBS and 100 U/mL penicillin and 100 μg/mL streptomycin (Lonza, Basel, Switzerland) (Pen-Strep). Promastigotes in the stationary phase of growth (5–6 days) were washed twice in phosphate-buffered saline at 2700× g for 10 min at 22 °C and employed for macrophage infection.
EOs and pure compounds were solved in DMSO (Sigma, Madrid, Spain) (<1% final concentration). […] Trophozoites/promastigotes viability was assessed using the modified MTT colorimetric assay, as described previously in the literature, with results further validated by microscopic examination. The plate was analyzed in a spectrophotometer at a wavelength of 570 nm. The percentage of antiparasitic activity was calculated as growth inhibition, using the following formula: % AT = 100 − [(Ap − Ab) ÷ (Ac − Ab)] × 100, where Ap is the absorbance of the tested product, Ab the absorbance of the blank and Ac the absorbance of the control wells (culture without treatment).
Pure compounds were tested using the same method, although at concentrations of 100, 75, 50, 25, 10, and 1 μg/mL. Metronidazole (Acros Organics, Madrid, Spain) served as a reference compound for anti-Giardia activity and Anti-Trichomonas activity and amphotericin B for anti-Leishmania activity.
(§1) Data was analyzed using STATGRAPHICS Centurion XIX (https://www.statgraphics.com) (Statgraphics Technologies, Inc., The Plains, VA, USA). The mammalian cells and trophozoites viability were tested with each compound in a dose–response experiment to calculate their relative potency (CC50 or IC50 value, respectively). IC50 (μg/mL) expresses the dose of EOs, extracts or pure compounds needed to produce 50% mortality of trophozoites, while CC50 (μg/mL) expresses the dose of compounds necessary to produce 50% mortality of Vero cells.

[6] = Cytotoxicity of pure compounds on Vero cells (MTT); type: cell-based; details: African green monkey, Vero cells (kidney cells); 48 h exposure; 50% Vero cell mortality; MTT; read-out: Vero Cells CC50
Protocol: African green monkey kidney cells (Vero cells) were maintained in Dulbecco’s modified Eagle’s minimal essential medium (DMEM) (Thermo Fisher Scientific, Waltham, MA, USA) supplemented with 10% FBS and 1% Pen-Strep at 37 °C under a humidified atmosphere of 5% CO2/95% air.
Cells seeded in 96-well flat-bottom microplates with 100 μL medium per well (initial densities 10^4 cells per well) were exposed for 48 h to serial dilutions (100, 75, 50, 25, 10 and 1 µg/mL) of the tested compounds in DMSO (<1% final concentration). Cell viability was analyzed by the MTT colorimetric assay method, and the purple-colored formazan precipitate was dissolved with 100 μL of DMSO [23].
as §1

T. gallinae trophozoites = experiment: Anti-Trichomonas activity assay (MTT viability); type: cell-based; details: pure compounds
Protocol: The anti-Trichomonas (AT) activity assay utilized T. gallinae trophozoites from an isolate obtained from a wood pigeon by Dr. […] EOs and pure compounds were solved in DMSO (Sigma, Madrid, Spain) (<1% final concentration). […] Trophozoites/promastigotes viability was assessed using the modified MTT colorimetric assay, as described previously in the literature, with results further validated by microscopic examination. The plate was analyzed in a spectrophotometer at a wavelength of 570 nm. The percentage of antiparasitic activity was calculated as growth inhibition, using the following formula: % AT = 100 - [(Ap - Ab) ÷ (Ac - Ab)] × 100, where Ap is the absorbance of the tested product, Ab the absorbance of the blank and Ac the absorbance of the control wells (culture without treatment). […] Metronidazole (Acros Organics, Madrid, Spain) served as a reference compound for anti-Giardia activity and Anti-Trichomonas activity and amphotericin B for anti-Leishmania activity. Data was analyzed using STATGRAPHICS Centurion XIX ([…].com) (Statgraphics Technologies, Inc., The Plains, VA, USA). The mammalian cells and trophozoites viability were tested with each compound in a dose-response experiment to calculate their relative potency (CC50 or IC50 value, respectively).

Row | Compound | Vero Cells CC50 (Vero cells) | Infection Index ([1]; % infected x amastigotes per infected cell) | % Infected Cells ([1]; mean ± SD) [%] | nº Amastigotes/Infected Cell ([1]; mean ± SD) | morphological alterations of promastigotes [2] | L. infantum (pm) IC50 [3] | IC50 [4] [µg/mL] | IC50 [5] [µg/mL] | CC50 at 48 h [6] [µg/mL] | IC50 (T. gallinae trophozoites) [µg/mL]
1 | C[C@@H]1[C@H](O)[C@@H](C)/C=C/C=C/C=C/C=C/C=C/C=C/C=C/[C@H](O[C@@H]2O[C@H](C)[C@@H](O)[C@H](N)[C@@H]2O)C[C@@H]2O[C@](O)(C[C@@H](O)C[C@@H](O)[C@H](O)CC[C@@H](O)C[C@@H](O)CC(=O)O[C@H]1C)C[C@H](O)[C@H]2C(=O)O [AmB, amphotericin B] | 7.11 [21] µg/mL | 8.9 ± 0.0 | 6.4 ± 3.7 | 1.4 ± 0.7 | strong morphological alterations | 0.01 [22] µg/mL |  |  |  | 
2 | C=C[C@]1(C)CC(=O)C(=C(C)C)C[C@H]1C(=C)C [Compound 1, β-elemenone] |  |  |  |  |  |  | > 100 | > 100 | > 100 | > 100
3 | CC(C)=C1CC(=O)[C@]2(C)CC[C@H]2[C@@H](C)CC1=O [Compound 3] |  |  |  |  |  |  | > 100 | 35.5 (≈ 151 µM) | > 100 | > 100
4 | C/C1=C\CC2(OC2(C)C)C(=O)C/C(C)=C/CC1 (stereo not drawn) [Compound 4] |  |  |  |  |  |  | > 100 | 88.8 (≈ 379 µM) | > 100 | 51.6 (≈ 220 µM)
